In patent US20070066615A1, “Heterocyclic compounds” (BAYER HEATHCARE AG, priority 2003, published 2007):

O=C(NCC1CN(c2ccc(N3CCCC3=O)cc2)C(=O)CO1)c1ccc(Cl)s1 (stereo not shown) [Example 4, 5-Chloro-N-({5-oxo-4-[4-(2-oxo-1-pyrrolidinyl)phenyl]-2-morpholinyl}methyl)-2-thiophenecarboxamide]
melting point: 201 °C (dec.)
